Measurements published in the supplement of paper PMC10883282.

Tests used:
Assay in all cases: relative viability vs DMSO control (72 h) (fraction); higher = more viable cells
[1] = test system: G401
In short: (§1)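 Sarcoma cell lines were grown in 384-well plates seeded toward 80–90% confluence and exposed 24 h later to serially diluted compound. After 72 h at 37 °C and 5% CO2, with 0.1% DMSO vehicle and a 5 µM positive control on the plates, ATPLite was read. Relative viability, given as percent growth averaged over up to triplicate wells, was rescaled so that 1 is full and 0 is none.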

[2] = test system: SW872
In short: as §1

[3] = test system: HT1080
In short: as §1

[4] = test system: HS729
In short: as §1

[5] = test system: RD-ES
In short: as §1

[6] = test system: SK-ES-1
In short: as §1

[7] = test system: SW982
In short: as §1

[8] = test system: KHOS-NP
In short: as §1

[9] = test system: SW684
In short: as §1

[10] = test system: VA-ES-BJ
In short: as §1

[11] = test system: SK-LMS-1
In short: as §1

[12] = test system: A204
In short: as §1

C[C@@H](Oc1cc(-c2cnn(C3CCNCC3)c2)cnc1N)c1c(Cl)ccc(F)c1Cl [Crizotinib]
Conditions	relative viability
[1], 0.00017 µM	1.01
[1], 0.00051 µM	0.995
[1], 0.00152 µM	1.01
[1], 0.00457 µM	1.01
[1], 0.01372 µM	1.01
[1], 0.04115 µM	1.01
[1], 0.1235 µM	0.9894
[1], 0.3704 µM	0.915
[1], 1.111 µM	0.745
[1], 3.333 µM	0.417
[1], 10 µM	0.000367
[2], 0.00017 µM	1.06
[2], 0.00051 µM	1.07
[2], 0.00152 µM	1.09
[2], 0.00457 µM	1.06
[2], 0.01372 µM	1.08
[2], 0.04115 µM	1.09
[2], 0.1235 µM	1.014
[2], 0.3704 µM	0.921
[2], 1.111 µM	0.644
[2], 3.333 µM	0.463
[2], 10 µM	-0.00847
[3], 0.00017 µM	1.07
[3], 0.00051 µM	1.05
[3], 0.00152 µM	1.07
[3], 0.00457 µM	1.09
[3], 0.01372 µM	1.07
[3], 0.04115 µM	1.07
[3], 0.1235 µM	1.06
[3], 0.3704 µM	1.07
[3], 1.111 µM	1.01
[3], 3.333 µM	0.754
[3], 10 µM	0.00533
[4], 0.00017 µM	0.998
[4], 0.00051 µM	1.01
[4], 0.00152 µM	0.9714
[4], 0.00457 µM	0.98
[4], 0.01372 µM	0.9284
[4], 0.04115 µM	0.947
[4], 0.1235 µM	0.922
[4], 0.3704 µM	0.872
[4], 1.111 µM	0.744
[4], 3.333 µM	0.58
[4], 10 µM	0.0222
[5], 0.00017 µM	0.969
[5], 0.00051 µM	0.96
[5], 0.00152 µM	0.963
[5], 0.00457 µM	0.95
[5], 0.01372 µM	0.963
[5], 0.04115 µM	0.972
[5], 0.1235 µM	0.911
[5], 0.3704 µM	0.745
[5], 1.111 µM	0.26
[5], 3.333 µM	0.0918
[5], 10 µM	0.00543
[6], 0.00017 µM	1.03
[6], 0.00051 µM	1.01
[6], 0.00152 µM	1.05
[6], 0.00457 µM	1.052
[6], 0.01372 µM	1.06
[6], 0.04115 µM	1.03
[6], 0.1235 µM	0.979
[6], 0.3704 µM	0.673
[6], 1.111 µM	0.0655
[6], 3.333 µM	0.0452
[6], 10 µM	0.00363
[7], 0.00017 µM	1.04
[7], 0.00051 µM	1.03
[7], 0.00152 µM	1.03
[7], 0.00457 µM	1.05
[7], 0.01372 µM	1.03
[7], 0.04115 µM	1.03
[7], 0.1235 µM	0.954
[7], 0.3704 µM	0.628
[7], 1.111 µM	0.328
[7], 3.333 µM	0.168
[7], 10 µM	0.00317
[8], 0.00017 µM	1.11
[8], 0.00051 µM	1.107
[8], 0.00152 µM	1.09
[8], 0.00457 µM	1.11
[8], 0.01372 µM	1.1
[8], 0.04115 µM	1.1
[8], 0.1235 µM	1.103
[8], 0.3704 µM	1.103
[8], 1.111 µM	1.08
[8], 3.333 µM	0.974
[8], 10 µM	0.0806
[9], 0.00017 µM	1.16
[9], 0.00051 µM	1.19
[9], 0.00152 µM	1.17
[9], 0.00457 µM	1.23
[9], 0.01372 µM	1.21
[9], 0.04115 µM	1.22
[9], 0.1235 µM	1.17
[9], 0.3704 µM	1.09
[9], 1.111 µM	0.976
[9], 3.333 µM	0.737
[9], 10 µM	0.0253
[10], 0.00017 µM	1.06
[10], 0.00051 µM	1.05
[10], 0.00152 µM	1.06
[10], 0.00457 µM	1.06
[10], 0.01372 µM	1.04
[10], 0.04115 µM	0.975
[10], 0.1235 µM	0.899
[10], 0.3704 µM	0.764
[10], 1.111 µM	0.641
[10], 3.333 µM	0.505
[10], 10 µM	0.00337
[11], 0.00017 µM	1.03
[11], 0.00051 µM	1.02
[11], 0.00152 µM	1.01
[11], 0.00457 µM	1.01
[11], 0.01372 µM	0.996
[11], 0.04115 µM	0.921
[11], 0.1235 µM	0.641
[11], 0.3704 µM	0.571
[11], 1.111 µM	0.525
[11], 3.333 µM	0.335
[11], 10 µM	0.0176
[12], 0.00017 µM	1.07
[12], 0.00051 µM	1.05
[12], 0.00152 µM	1.08
[12], 0.00457 µM	1.08
[12], 0.01372 µM	1.1
[12], 0.04115 µM	1.09
[12], 0.1235 µM	1.08
[12], 0.3704 µM	0.963
[12], 1.111 µM	0.823
[12], 3.333 µM	0.577
[12], 10 µM	0.0123
